Measured values reported in patent US9856216B2, “Compounds as TNIK, IKKε and TBK1 inhibitors and pharmaceutical composition comprising same” (GREEN CROSS CORPORATION, priority 2015, dated 2018).

The molecules below were run against T1, TNIK (Homo sapiens, UniProt Q9UKE5) (assay: ADP-Glo Kinase Assay, inhibition activity on TNIK). Conditions: not given.
T1 construct: purchased Promega V4158
Format: biochemical
Procedure: The inhibition activities on TNIK, IKKε and TBK1 were measured by a luminometer, TNIK/IKKε/TBK1 Kinase Enzyme System (Promega, Ca# V4158; Invitrogen, PR8031B, Promega, Ca# V3991) and ADP-Glo Kinase Assay using ADP-Glo™ Kinase Analysis Kit (Promega, Ca# V9101) and a kinase reaction buffer [40 mM Tris(pH 7.5), 20 mM MgCl2, 0.1 mg/mL BSA] in accordance with the manufacturer's protocol.

T1 sequence (Q9UKE5 1-367 limits assumed): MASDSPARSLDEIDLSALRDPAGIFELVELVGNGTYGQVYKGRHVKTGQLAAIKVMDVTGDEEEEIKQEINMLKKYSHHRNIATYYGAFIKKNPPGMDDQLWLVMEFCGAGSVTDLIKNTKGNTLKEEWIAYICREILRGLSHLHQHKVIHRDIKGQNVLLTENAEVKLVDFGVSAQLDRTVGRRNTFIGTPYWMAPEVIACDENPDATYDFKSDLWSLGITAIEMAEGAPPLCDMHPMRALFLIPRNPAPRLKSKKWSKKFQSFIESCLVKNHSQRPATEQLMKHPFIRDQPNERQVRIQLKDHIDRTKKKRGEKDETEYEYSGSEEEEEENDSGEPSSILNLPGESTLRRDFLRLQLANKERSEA

TNIK (μM)	Structure (SMILES)
Insoluble	COC(=O)c1ccc(-c2ccc(NC(=O)c3ccccc3)c3c2CNC3=O)cc1 [Example 10, methyl 4-(7-benzamido-1-oxoisoindolin-4-yl)benzo ate]
Insoluble	CC(=O)c1ccc(-c2ccc(NC(=O)c3ccccc3)c3c2CNC3=O)cc1 [Example 13, N-(7-(4-acetylphenyl)-3-oxoisoindolin-4-yl)benzamide]
Insoluble	O=C(Nc1ccc(-c2cc(Cl)ccc2Cl)c2c1C(=O)NC2)c1ccccc1 [Example 19, N-(7-(2,5-dichlorophenyl)-3-oxoisoindolin-4-yl)benzamide]
Insoluble	COc1cc(F)ccc1-c1ccc(NC(=O)c2ccccc2)c2c1CNC2=O [Example 22, N-(7-(4-fluoro-2-methoxyphenyl)-3-oxoisoindolin-4-yl)benzamide]
Insoluble	COc1ccc(-c2ccc(NC(=O)c3ccccc3)c3c2CNC3=O)c(OC)c1OC [Example 25, N-(3-oxo-7-(2,3,4-trimethoxyphenyl)isoindolin-4-yl)benzamide]

Same assay, conditions: read-out: TNIK

IC50 [µM]	Structure (SMILES)
3.1	CCc1ccccc1-c1ccc(NC(=O)c2ccccc2)c2c1CNC2=O [Example 1, N-(7-(2-ethylphenyl)-3-oxoisoindolin-4-yl)benzamide]
> 20	CC(C)c1cccc(-c2ccc(NC(=O)c3ccccc3)c3c2CNC3=O)c1 [Example 2, N-(7-(3-isopropylphenyl)-3-oxoisoindolin-4-yl)benzamide]
> 20	CC(C)(C)c1ccc(-c2ccc(NC(=O)c3ccccc3)c3c2CNC3=O)cc1 [Example 3, N-(7-(4-(tert-butyl)phenyl)-3-oxoisoindolin-4-yl)benzamide]
3	O=C(Nc1ccc(-c2ccccc2OC(F)(F)F)c2c1C(=O)NC2)c1ccccc1 [Example 4, N-(3-oxo-7-(2-(trifluoromethoxy)phenyl)isoindolin-4-yl)benzamide]
> 20	O=C(Nc1ccc(-c2cccc(OC(F)(F)F)c2)c2c1C(=O)NC2)c1ccccc1 [Example 5, N-(3-oxo-7-(3-(trifluoromethoxy)phenyl)isoindolin-4-yl)benzamide]
> 20	CC(C)Oc1ccccc1-c1ccc(NC(=O)c2ccccc2)c2c1CNC2=O [Example 6, N-(7-(2-isopropoxyphenyl)-3-oxoisoindolin-4-yl)benzamide]
> 20	CC(C)Oc1cccc(-c2ccc(NC(=O)c3ccccc3)c3c2CNC3=O)c1 [Example 7, N-(7-(3-isopropoxyphenyl)-3-oxoisoindolin-4-yl)benzamide]
> 20	COC(=O)c1ccccc1-c1ccc(NC(=O)c2ccccc2)c2c1CNC2=O [Example 8, methyl 2-(7-benzamido-1-oxoisoindolin-4-yl)benzo ate]
> 20	COC(=O)c1cccc(-c2ccc(NC(=O)c3ccccc3)c3c2CNC3=O)c1 [Example 9, methyl 3-(7-benzamido-1-oxoisoindolin-4-yl)benzo ate]
9.5	CC(=O)c1ccccc1-c1ccc(NC(=O)c2ccccc2)c2c1CNC2=O [Example 11, N-(7-(2-acetylphenyl)-3-oxoisoindolin-4-yl)benzamide]
> 20	CC(=O)c1cccc(-c2ccc(NC(=O)c3ccccc3)c3c2CNC3=O)c1 [Example 12, N-(7-(3-acetylphenyl)-3-oxoisoindolin-4-yl)benzamide]
1.1	CSc1ccccc1-c1ccc(NC(=O)c2ccccc2)c2c1CNC2=O [Example 14, N-(7-(2-(methylthio)phenyl)-3-oxoisoindolin-4-yl)benzamide]
> 20	O=C(Nc1ccc(-c2ccc(F)cc2F)c2c1C(=O)NC2)c1ccccc1 [Example 15, N-(7-(2,4-difluorophenyl)-3-oxoisoindolin-4-yl)benzamide]
1.3	Cc1cccc(-c2ccc(NC(=O)c3ccccc3)c3c2CNC3=O)c1C [Example 16, N-(7-(2,3-dimethylphenyl)-3-oxoisoindolin-4-yl)benzamide]
1	O=C(Nc1ccc(-c2cccc(Cl)c2Cl)c2c1C(=O)NC2)c1ccccc1 [Example 17, N-(7-(2,3-dichlorophenyl)-3-oxoisoindolin-4-yl)benzamide]
> 20	O=C(Nc1ccc(-c2ccc(Cl)cc2Cl)c2c1C(=O)NC2)c1ccccc1 [Example 18, N-(7-(2,4-dichlorophenyl)-3-oxoisoindolin-4-yl)benzamide]
> 20	O=C(Nc1ccc(-c2ccc(Cl)c(Cl)c2)c2c1C(=O)NC2)c1ccccc1 [Example 20, N-(7-(3,4-dichlorophenyl)-3-oxoisoindolin-4-yl)benzamide]
> 20	O=C(Nc1ccc(-c2cc(Cl)cc(Cl)c2)c2c1C(=O)NC2)c1ccccc1 [Example 21, N-(7-(3,5-dichlorophenyl)-3-oxoisoindolin-4-yl)benzamide]
8.9	O=C(Nc1ccc(-c2cccc(F)c2Cl)c2c1C(=O)NC2)c1ccccc1 [Example 23, N-(7-(2-chloro-3-fluorophenyl)-3-oxoisoindolin-4-yl)benzamide]
> 20	COc1cccc(-c2ccc(NC(=O)c3ccccc3)c3c2CNC3=O)c1F [Example 24, N-(7-(2-fluoro-3-methoxyphenyl)-3-oxoisoindolin-4-yl)benzamide]
3.8	Cc1ccc(-c2ccc(NC(=O)c3ccccc3)c3c2CNC3=O)cc1C [Example 26, N-(7-(3,4-dimethylphenyl)-3-oxoisoindolin-4-yl)benzamide]

IC50 [µM]	Structure (SMILES)
3	Cc1cc(C)cc(-c2ccc(NC(=O)c3ccccc3)c3c2CNC3=O)c1 [Example 27, N-(7-(3,5-dimethylphenyl)-3-oxoisoindolin-4-yl)benzamide]
1.7	Cc1cccc(C)c1-c1ccc(NC(=O)c2ccccc2)c2c1CNC2=O [Example 28, N-(7-(2,6-dimethylphenyl)-3-oxoisoindolin-4-yl)benzamide]
1.8	CCc1ccc(NC(=O)c2ccccc2)c2c1CNC2=O [Example 29, N-(7-ethyl-3-oxoisoindolin-4-yl)benzamide]
> 20	O=C(Nc1ccc(-c2cc(F)cc(F)c2)c2c1C(=O)NC2)c1ccccc1 [Example 30, N-(7-(3,5-difluorophenyl)-3-oxoisoindolin-4-yl)benzamide]
1.6	Cc1ccc(C)c(-c2ccc(NC(=O)c3ccccc3)c3c2CNC3=O)c1 [Example 31, N-(7-(2,5-dimethylphenyl)-3-oxoisoindolin-4-yl)benzamide]
1	O=C(Nc1ccc(-c2cc(F)ccc2F)c2c1C(=O)NC2)c1ccccc1 [Example 32, N-(7-(2,5-difluorophenyl)-3-oxoisoindolin-4-yl)benzamide]
3.7	O=C(Nc1ccc(-c2ccc(F)c(F)c2)c2c1C(=O)NC2)c1ccccc1 [Example 33, N-(7-(3,4-difluorophenyl)-3-oxoisoindolin-4-yl)benzamide]
0.54	O=C(Nc1ccc(-c2cccc(F)c2F)c2c1C(=O)NC2)c1ccccc1 [Example 34, N-(7-(2,3-difluorophenyl)-3-oxoisoindolin-4-yl)benzamide]
8.6	CCCCc1ccc(NC(=O)c2ccccc2)c2c1CNC2=O [Example 35, N-(7-butyl-3-oxoisoindolin-4-yl)benzamide]
> 20	CCCc1ccc(NC(=O)c2ccc(F)cc2)c2c1CNC2=O [Example 36, 4-fluoro-N-(3-oxo-7-propylisoindolin-4-yl)benzamide]
6.1	Cc1ccc(NC(=O)c2ccccc2)c2c1CNC2=O [Example 37, N-(7-methyl-3-oxoisoindolin-4-yl)benzamide]
1.7	Cc1ccc(-c2ccc(NC(=O)c3ccccc3)c3c2CNC3=O)c(C)c1 [Example 38, N-(7-(2,4-dimethylphenyl)-3-oxoisoindolin-4-yl)benzamide]
6.1	CCc1ccc(-c2ccc(NC(=O)c3ccccc3)c3c2CNC3=O)cc1 [Example 39, N-(7-(4-ethylphenyl)-3-oxoisoindolin-4-yl)benzamide]
> 20	CC(C)Oc1ccc(-c2ccc(NC(=O)c3ccccc3)c3c2CNC3=O)cc1 [Example 40, N-(7-(4-isopropoxyphenyl)-3-oxoisoindolin-4-yl)benzamide]
1.2	CSc1ccc(-c2ccc(NC(=O)c3ccccc3)c3c2CNC3=O)cc1 [Example 41, N-(7-(4-(methylthio)phenyl)-3-oxoisoindolin-4-yl)benzamide]
3.7	CCc1cccc(-c2ccc(NC(=O)c3ccccc3)c3c2CNC3=O)c1 [Example 42, N-(7-(3-ethylphenyl)-3-oxoisoindolin-4-yl)benzamide]
> 20	CCCOc1ccccc1-c1ccc(NC(=O)c2ccccc2)c2c1CNC2=O [Example 43, N-(3-oxo-7-(2-propoxyphenyl)isoindolin-4-yl)benzamide]
> 20	CCCOc1cccc(-c2ccc(NC(=O)c3ccccc3)c3c2CNC3=O)c1 [Example 44, N-(3-oxo-7-(3-propoxyphenyl)isoindolin-4-yl)benzamide]
> 20	CS(=O)(=O)c1ccccc1-c1ccc(NC(=O)c2ccccc2)c2c1CNC2=O [Example 47, N-(7-(2-(methylsulfonyl)phenyl)-3-oxoisoindolin-4-yl) benzamide]
0.49	COc1c(F)cccc1-c1ccc(NC(=O)c2ccccc2)c2c1CNC2=O [Example 48, N-(7-(3-fluoro-2-methoxyphenyl)-3-oxoisoindolin-4-yl) benzamide]
> 20	COc1cc(Cl)ccc1-c1ccc(NC(=O)c2ccccc2)c2c1CNC2=O [Example 49, N-(7-(4-chloro-2-methoxyphenyl)-3-oxoisoindolin-4-yl) benzamide]

Structure (SMILES)	IC50 [µM]
CCCCOc1ccccc1-c1ccc(NC(=O)c2ccccc2)c2c1CNC2=O [Example 45, N-(7-(2-butoxyphenyl)-3-oxoisoindolin-4-yl)benzamide]	> 20
CCCCOc1cccc(-c2ccc(NC(=O)c3ccccc3)c3c2CNC3=O)c1 [Example 46, N-(7-(3-butoxyphenyl)-3-oxoisoindolin-4-yl)benzamide]	> 20
